From ChEMBL document CHEMBL4346657, “Anticancer activity, dual prooxidant/antioxidant effect and apoptosis induction profile of new bichalcophene-5-carboxamidines” (Eur J Med Chem, 2019)

Columns and labels:
WI-38 = assay: Cytotoxicity activity against human WI38 cells assessed as reduction in cell viability measured after 48 hrs by MTT assay; format: cell-based; settings: WI-38, 48 h
[1] = Selectivity index, ratio of IC50 for human WI38 cells to GI50 for human NCI60 cells
[2] = test system: Panel NCI-60 (60 carcinoma cell lines); assay: Antiproliferative activity against human NCI60 cells assessed as growth inhibition at 10 uM after 48 hrs by sulforhodamine B assay; format: functional; settings: read-out: GI
ACHN = assay: Antiproliferative activity against human ACHN cells assessed as growth inhibition after 48 hrs by sulforhodamine B assay; format: functional
A498 = assay: Antiproliferative activity against human A498 cells assessed as growth inhibition after 48 hrs by sulforhodamine B assay; format: functional; settings: A498, 48 h
NCI/ADR-RES = assay: Antiproliferative activity against human NCI-ADR-RES cells assessed as growth inhibition after 48 hrs by sulforhodamine B assay; format: functional
IGROV-1 = assay: Antiproliferative activity against human IGROV1 cells assessed as growth inhibition after 48 hrs by sulforhodamine B assay; format: functional; settings: IGROV-1, 48 h
UACC-62 = assay: Antiproliferative activity against human UACC62 cells assessed as growth inhibition after 48 hrs by sulforhodamine B assay; format: functional; settings: UACC-62, 48 h
SK-MEL-5 = assay: Antiproliferative activity against human SK-MEL-5 cells assessed as growth inhibition after 48 hrs by sulforhodamine B assay; format: functional; settings: SK-MEL-5, 48 h
SK-MEL-28 = assay: Antiproliferative activity against human SK-MEL-28 cells assessed as growth inhibition after 48 hrs by sulforhodamine B assay; format: functional; settings: SK-MEL-28, 48 h
SK-MEL-2 = assay: Antiproliferative activity against human SK-MEL-2 cells assessed as growth inhibition after 48 hrs by sulforhodamine B assay; format: functional; settings: SK-MEL-2, 48 h
M14 = assay: Antiproliferative activity against human M14 cells assessed as growth inhibition after 48 hrs by sulforhodamine B assay; format: functional; settings: M14, 48 h
U-251 = assay: Antiproliferative activity against human U251 cells assessed as growth inhibition after 48 hrs by sulforhodamine B assay; format: functional; settings: U-251, 48 h
SNB-19 = assay: Antiproliferative activity against human SNB19 cells assessed as growth inhibition after 48 hrs by sulforhodamine B assay; format: functional; settings: SNB-19, 48 h
SF-295 = assay: Antiproliferative activity against human SF295 cells assessed as growth inhibition after 48 hrs by sulforhodamine B assay; format: functional; settings: SF-295, 48 h
SW-620 = assay: Antiproliferative activity against human SW620 cells assessed as growth inhibition after 48 hrs by sulforhodamine B assay; format: functional; settings: SW-620, 48 h
KM12 = assay: Antiproliferative activity against human KM12 cells assessed as growth inhibition after 48 hrs by sulforhodamine B assay; format: functional; settings: KM12, 48 h
HT-29 = assay: Antiproliferative activity against human HT-29 cells assessed as growth inhibition after 48 hrs by sulforhodamine B assay; format: functional; settings: HT-29, 48 h
HCT-116 [3] = assay: Antiproliferative activity against human HCT116 cells assessed as growth inhibition after 48 hrs by sulforhodamine B assay; format: functional; settings: HCT-116, 48 h
HCC 2998 = assay: Antiproliferative activity against human HCC2998 cells assessed as growth inhibition after 48 hrs by sulforhodamine B assay; format: functional; settings: HCC 2998, 48 h
NCI-H522 = assay: Antiproliferative activity against human NCI-H522 cells assessed as growth inhibition after 48 hrs by sulforhodamine B assay; format: functional; settings: NCI-H522, 48 h
NCI-H322M = assay: Antiproliferative activity against human NCI-H322M cells assessed as growth inhibition after 48 hrs by sulforhodamine B assay; format: functional
NCI-H226 = assay: Antiproliferative activity against human NCI-H226 cells assessed as growth inhibition after 48 hrs by sulforhodamine B assay; format: functional; settings: NCI-H226, 48 h
HOP-92 = assay: Antiproliferative activity against human HOP92 cells assessed as growth inhibition after 48 hrs by sulforhodamine B assay; format: functional; settings: HOP-92, 48 h
RPMI-8226 = assay: Antiproliferative activity against human RPMI8226 cells assessed as growth inhibition after 48 hrs by sulforhodamine B assay; format: functional; settings: RPMI-8226, 48 h
K562 = assay: Antiproliferative activity against human K562 cells assessed as growth inhibition after 48 hrs by sulforhodamine B assay; format: functional, cell-based; settings: K562, 48 h, read-out: IC50
HL-60(TB) = assay: Antiproliferative activity against human HL-60(TB) cells assessed as growth inhibition after 48 hrs by sulforhodamine B assay; format: functional; settings: HL-60, 48 h
CCRF-CEM = assay: Antiproliferative activity against human CCRF-CEM cells assessed as growth inhibition after 48 hrs by sulforhodamine B assay; format: functional
Hs-578T = assay: Antiproliferative activity against human Hs578T cells assessed as growth inhibition after 48 hrs by sulforhodamine B assay; format: functional
[4] = Haemolytic activity in human erythrocytes assessed as induction of hemolysis at 2.5 mM after 30 mins relative to H202; format: cell-based, Erythrocyte; settings: erythrocytes, read-out: Activity
Erythrocyte [5] = assay: Haemolytic activity in human erythrocytes assessed as induction of hemolysis at 1.25 mM after 30 mins relative to H202; format: cell-based; settings: erythrocyte, 0.5 h, 1250 µM
Erythrocyte [6] = assay: Haemolytic activity in human erythrocytes assessed as induction of hemolysis at 0.625 mM after 30 mins relative to H202; format: cell-based; settings: erythrocyte, 0.5 h, 625 µM
[7] = Antioxidant activity assessed as DPPH radical scavenging activity incubated in dark for 30 mins by spectrophotometric method relative to ascorbic acid; format: functional
[8] = Antioxidant activity assessed as ABTS radical scavenging activity by spectrophotometric method relative to ascorbic acid; format: functional
HCT-116 [9] = assay: Induction of apoptosis in human HCT116 cells assessed as increase in caspase 9 mRNA expression at 100 nM after 6 hrs hrs by SYBR green dye-based qRT-PCR analysis relative to control; format: functional
SR = assay: Antiproliferative activity against human SR cells assessed as growth inhibition after 48 hrs by sulforhodamine B assay; format: functional
T47D = assay: Antiproliferative activity against human T47D cells assessed as growth inhibition after 48 hrs by sulforhodamine B assay; format: functional

Row | SMILES | IC50 (WI-38) [nM] | Selectivity Index [1] | inhibition of growth at 10 µM [2] [%] | GI50 (ACHN) [nM] | GI50 (A498) [nM] | GI50 (NCI/ADR-RES) [nM] | GI50 (IGROV-1) [nM] | GI50 (UACC-62) [nM] | GI50 (SK-MEL-5) [nM] | GI50 (SK-MEL-28) [nM] | GI50 (M14) [nM] | GI50 (U-251) [nM] | GI50 (SNB-19) [nM] | GI50 (SF-295) [nM] | GI50 (SW-620) [nM] | GI50 (KM12) [nM] | GI50 (HT-29) [nM] | GI50 (HCT-116 [3]) [nM] | GI50 (HCC 2998) [nM] | GI50 (NCI-H522) [nM] | also measured
1 | N=C(N)c1ccc(-c2ccc(-c3ccc(F)cc3)o2)o1 | 10600 | 7.2 | 83.8 | 1600 | 1900 | 1680 | 1580 | 1740 | 1560 | 1630 | 1230 | 1600 | 1730 | 1510 | 940 | 1440 | 610 | 1180 | 1370 | 1360 | GI50 (SK-MEL-2): 1760 nM; GI50 (NCI-H322M): 1600 nM; GI50 (NCI-H226): 2820 nM; GI50 (HOP-92): 1210 nM; GI50 (RPMI-8226): 2480 nM; IC50 (K562): 490 nM; GI50 (HL-60(TB)): 1800 nM; GI50 (CCRF-CEM): 1840 nM; GI50 (Hs-578T): 1950 nM; hemolysis at 0.5 h, 2500 µM [4]: 17.6%; Activity (Erythrocyte [5]): Non-Toxic; Activity (Erythrocyte [6]): Non-Toxic; fold change (FC) [7]: 0.1; fold change (FC) [8]: 0.1; fold change (FC) (HCT-116 [9]): 4.67
2 | N=C(N)c1ccc(-c2ccc(-c3ccc(Cl)cc3)s2)s1 | 69200 | 40 | -57.2 | 1750 | 13000 | 1850 | 1830 | 1800 | 3160 | 1680 | 1710 | 1830 | 1920 | 1630 | 1740 | 1690 | 1430 | 1740 | 1570 | 1830 | GI50 (SK-MEL-2): 2380 nM; GI50 (NCI-H322M): 1630 nM; GI50 (NCI-H226): 2190 nM; GI50 (HOP-92): 1810 nM; GI50 (SR): 320 nM; GI50 (RPMI-8226): 2040 nM; IC50 (K562): 670 nM; GI50 (HL-60(TB)): 1490 nM; GI50 (CCRF-CEM): 1840 nM; GI50 (Hs-578T): 2140 nM; GI50 (T47D): 1550 nM; hemolysis at 0.5 h, 2500 µM [4]: 14.3%; Activity (Erythrocyte [5]): Non-Toxic; Activity (Erythrocyte [6]): Non-Toxic; fold change (FC) [7]: 0.8; fold change (FC) [8]: 0.9; fold change (FC) (HCT-116 [9]): 2.91
3 | COc1cc(-c2ccc(-c3ccc(C(=N)N)s3)s2)cc(OC)c1OC | 65700 | 34.4 | 73.5 | 1780 | 2250 | 3440 | 1980 | 1700 | 1520 | 1580 | 1700 | 1990 | 2160 | 1780 | 1910 | 1730 | 1240 | 1730 | 1760 | 1940 | GI50 (NCI-H322M): 2380 nM; GI50 (NCI-H226): 1880 nM; GI50 (HOP-92): 1140 nM; GI50 (SR): 1830 nM; GI50 (RPMI-8226): 2460 nM; IC50 (K562): 1110 nM; GI50 (HL-60(TB)): 2700 nM; GI50 (CCRF-CEM): 3420 nM; GI50 (T47D): 1700 nM; hemolysis at 0.5 h, 2500 µM [4]: 11.3%; Activity (Erythrocyte [5]): Non-Toxic; Activity (Erythrocyte [6]): Non-Toxic; fold change (FC) [7]: 0.7; fold change (FC) [8]: 0.8; fold change (FC) (HCT-116 [9]): 2.81
4 | N=C(N)c1ccc(-c2ccc(-c3ccccc3)o2)o1 | 68700 | 28.6 | 68.2 | 2560 | 3030 | 2820 | 2890 | 1930 | 1750 | 1900 | 1620 | 2220 | 3010 | 1810 | 1790 | 2610 | 2110 | 2070 | 1610 | 1940 | GI50 (SK-MEL-2): 2250 nM; GI50 (NCI-H322M): 2120 nM; GI50 (NCI-H226): 5700 nM; GI50 (HOP-92): 1850 nM; GI50 (RPMI-8226): 2890 nM; IC50 (K562): 660 nM; GI50 (HL-60(TB)): 2180 nM; GI50 (CCRF-CEM): 3580 nM; GI50 (Hs-578T): 3810 nM; hemolysis at 0.5 h, 2500 µM [4]: 7%; Activity (Erythrocyte [5]): Non-Toxic; Activity (Erythrocyte [6]): Non-Toxic; fold change (FC) [7]: 0.3; fold change (FC) [8]: 0.4; fold change (FC) (HCT-116 [9]): 2.28
